The source made the active and inactive calls. No cut-off for these calls is given here.
Key:
A549 [1] = experiment: Inhibition of TGF-beta1 induced epithelial-mesenchymal transition in human A549 cells assessed as reduction in phosphorylated SMAD3 level preincubated for 2 hrs followed by TGF-beta1 addition by Western blot method; type: functional, cell-based
A549 [2] = experiment: Inhibition of TGF-beta1 induced epithelial-mesenchymal transition in human A549 cells assessed as reduction in SPARC level AT 5 AND 10 uM incubated for 48 hrs by qRT-PCR method; type: functional, cell-based
A549 [3] = experiment: Inhibition of TGF-beta1 induced epithelial-mesenchymal transition in human A549 cells assessed as reduction in SNAI1 level AT 5 AND 10 uM incubated for 48 hrs by qRT-PCR method; type: functional, cell-based
A549 [4] = experiment: Inhibition of TGF-beta1 induced epithelial-mesenchymal transition in human A549 cells assessed as reduction in […] level AT 5 AND 10 uM incubated for 48 hrs by qRT-PCR method; type: functional, cell-based
A549 [5] = experiment: Inhibition of TGF-beta1 induced cell migration in human A549 cells assessed as reduction in cell surface area incubated for 48 hrs by wound healing assay; type: functional, cell-based
A549 [6] = experiment: Inhibition of TGF-beta1 induced epithelial-mesenchymal transition in human A549 cells assessed as reduction in SNAI2 level AT 5 AND 10 uM incubated for 48 hrs by qRT-PCR method; type: functional, cell-based
A549 [7] = experiment: Inhibition of TGF-beta1-induced upregulation of Snail protein expression in human A549 cells preincubated for 2 hrs by Western blot method; type: functional, cell-based
A549 [8] = experiment: Inhibition of TGF-beta1 induced epithelial-mesenchymal transition in human A549 cells assessed as morphological changes at 5 to 10 uM preincubated for 2 hrs followed by TGF-beta1 addition; type: functional, cell-based
A549 [9] = experiment: Inhibition of TGF-beta1 induced epithelial-mesenchymal transition in human A549 cells assessed as reduction in ITGA5 level AT 5 AND 10 uM incubated for 48 hrs by qRT-PCR method; type: functional, cell-based
A549 [10] = experiment: Inhibition of TGF-beta1 induced epithelial-mesenchymal transition in human A549 cells assessed as reduction in nuclear SMAD2 level preincubated for 2 hrs by Western blot method; type: functional, cell-based
A549 [11] = experiment: Inhibition of TGF-beta1 induced epithelial-mesenchymal transition in human A549 cells assessed as reduction in nuclear SMAD3 level preincubated for 2 hrs by Western blot method; type: functional, cell-based
A549 [12] = experiment: Cytotoxicity against human A549 cells assessed as cell viability at 50 to 100 uM after 48 hrs by WST-8 staining based CCK8 assay; details: a549, 48 h
A549 [13] = experiment: Inhibition of TGF-beta1-induced downregulation of epithelial marker E-cadherin expression in human A549 cells at 5 to 10 uM preincubated for 2 hrs by Western blot method; type: functional, cell-based
A549 [14] = experiment: Inhibition of TGF-beta1 induced epithelial-mesenchymal transition in human A549 cells assessed as reduction in phosphorylated SMAD2 level preincubated for 2 hrs followed by TGF-beta1 addition by Western blot method; type: functional, cell-based
A549 [15] = experiment: Inhibition of TGF-beta1 induced epithelial-mesenchymal transition in human A549 cells assessed as reduction in CDH2 level AT 5 AND 10 uM incubated for 48 hrs by qRT-PCR method; type: functional, cell-based
A549 [16] = experiment: Inhibition of TGF-beta1 induced epithelial-mesenchymal transition in human A549 cells assessed as reduction in COL5A2 level AT 5 AND 10 uM incubated for 48 hrs by qRT-PCR method; type: functional, cell-based
A549 [17] = experiment: Inhibition of TGF-beta1 stimulated invasion in human A549 cells at 5 to 10 uM incubated for 48 hrs by matrigel invasion assay; type: functional, cell-based
A549 [18] = experiment: Inhibition of TGF-beta1 response promoter transactivation mediated SMAD2 and SMAD3 phosphorylation in human A549 cells at 5 to 10 uM preincubated for 2 hrs by dual luciferase reporter assay; type: functional, cell-based
A549 [19] = experiment: Inhibition of TGF-beta1 induced epithelial-mesenchymal transition in human A549 cells assessed as reduction in nuclear phosphorylated SMAD3 level preincubated for 2 hrs by Western blot method; type: functional, cell-based
A549 [20] = experiment: Inhibition of TGF-beta1 induced epithelial-mesenchymal transition in human A549 cells assessed as reduction in CALD1 level AT 5 AND 10 uM incubated for 48 hrs by qRT-PCR method; type: functional, cell-based
A549 [21] = experiment: Inhibition of TGF-beta1 induced epithelial-mesenchymal transition in human A549 cells assessed as reduction in nuclear phosphorylated SMAD2 level preincubated for 2 hrs by Western blot method; type: functional, cell-based
A549 [22] = experiment: Cytotoxicity against human A549 cells assessed as cell viability at 1 to 25 uM after 48 hrs by WST-8 staining based CCK8 assay; details: a549, 48 h
A549 [23] = experiment: Inhibition of TGF-beta1 induced epithelial-mesenchymal transition in human A549 cells assessed as reduction in PAI1 level AT 5 AND 10 uM incubated for 48 hrs by qRT-PCR method; type: functional, cell-based
A549 [24] = experiment: Inhibition of TGF-beta1-induced plasminogen activator inhibitor type 1 expression in human A549 cells assessed at 5 to 10 uM preincubated for 2 hrs by Western blot method; type: functional, cell-based
A549 [25] = experiment: Inhibition of TGF-beta1-induced […] Snail promoter activity in human A549 cells at 5 to 10 uM preincubated for 2 hrs by dual luciferase reporter assay; type: functional, cell-based
A549 [26] = experiment: Inhibition of TGF-beta1-induced upregulation of mesenchymal marker N-cadherin expression in human A549 cells at 5 to 10 uM preincubated for 2 hrs by Western blot method; type: functional, cell-based
A549 [27] = experiment: Inhibition of TGF-beta1-induced matrix metalloproteinase-9 expression in human A549 cells at 5 to 10 uM preincubated for 2 hrs by Western blot method; type: functional, cell-based

For `O=C(O[C@@H]1O[C@@H]2COC(=O)c3cc(O)c(O)c(O)c3-c3c(cc(O)c(O)c3O)C(=O)O[C@H]2[C@@H]2OC(=O)c3cc(O)c(O)c(O)c3-c3c(cc(O)c(O)c3O)C(=O)O[C@H]12)c1cc(O)c(O)c(Oc2c(O)c(O)c(O)c3c2C(=O)O[C@H]2[C@@H]4OC(=O)c5cc(O)c(O)c(O)c5-c5c(cc(O)c(O)c5O)C(=O)O[C@@H]4[C@@H](OC(=O)c4cc(O)c(O)c(O)c4)O[C@@H]2COC(=O)c2cc(O)c(O)c(O)c2-3)c1`, the inhibition (A549 [1]) was “Dose-dependent effect”, the inhibition (A549 [2]) was “Active” and the inhibition (A549 [3]) was “Active”. For the same compound, the inhibition (A549 [4]) was “Active”, the inhibition (A549 [5]) was “Dose-dependent effect” and the inhibition (A549 [6]) was “Active”. The inhibition (A549 [7]) was “Dose-dependent effect”, the inhibition (A549 [8]) was “Active” and the inhibition (A549 [9]) was “Active”. The inhibition (A549 [10]) was “Dose-dependent effect”, the inhibition (A549 [11]) was “Dose-dependent effect” and the Activity (A549 [12]) was “Toxic”. The inhibition (A549 [13]) was “Active”, the inhibition (A549 [14]) was “Dose-dependent effect” and the inhibition (A549 [15]) was “Active”. For the same compound, the inhibition (A549 [16]) was “Active”, the inhibition (A549 [17]) was “Active” and the inhibition (A549 [18]) was “Active”. For the same compound, the inhibition (A549 [19]) was “Dose-dependent effect”, the inhibition (A549 [20]) was “Active” and the inhibition (A549 [21]) was “Dose-dependent effect”. The Activity (A549 [22]) was “Non-toxic”, the inhibition (A549 [23]) was “Active” and the inhibition (A549 [24]) was “Dose-dependent effect”. For the same compound, the inhibition (A549 [25]) was “Active”, the inhibition (A549 [26]) was “Active” and the inhibition (A549 [27]) was “Active”.
